Data taken from patent US20170073337A1, “DIHYDROTHIAZINE AND DIHYDROOXAZINE DERIVATIVES HAVING BACE1 INHIBITORY ACTIVITY” (Shionogi & Co., Ltd., priority 2014, published 2017).
pIC50: −log10 of the molar value. In brackets after ≈: the same amount, converted by molar mass. Where two headings read alike, the source gives them in different places.

Key:
CYP2C19 = biological target: T1, CYP2C19 (Homo sapiens, UniProt P33261); experiment: CYP inhibition test (CYP2C19); assay type: in vitro ADME; settings: pooled human liver microsomes; mephenytoin 4′-hydroxylation
T1 construct: The commercially available pooled human liver microsomes are used as an enzyme resource; from tissue; host or cells: pooled human liver microsomes
Outline: (§1)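 Pooled human liver microsomes (0.2 mg protein/mL) were incubated at 37 °C with NADPH, compound at 1, 5, 10, 20 μmol/L and marker substrates: tolbutamide 100 μmol/L (2C9), S-mephenytoin 50 μmol/L (2C19), dextromethorphan 5 μmol/L (2D6), terfenadine 1 μmol/L (3A4). Metabolites were measured by LC/MS/MS; IC50 came from logistic fitting against DMSO control.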

Solubility test = assay type: physicochemical
Outline: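 Dissolved concentration determined by LC/MS or SPE/MS (absolute calibration) in diluted filtrates, after 2 μL of 10 mmol/L DMSO stock was added to 198 μL JP 1st or JP 2nd fluid and equilibrated either 1 h with shaking at room temperature or 16 h standing at 25 °C.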

CYP1A2 = biological target: T2, CYP1A2 (Homo sapiens, UniProt P05177); experiment: CYP inhibition test (CYP1A2); assay type: in vitro ADME; settings: pooled human liver microsomes; 7-ethoxyresorufin O-deethylation
T2 construct: The commercially available pooled human liver microsomes are used as an enzyme resource; from tissue; host or cells: pooled human liver microsomes
T2 sequence (P05177 1-516): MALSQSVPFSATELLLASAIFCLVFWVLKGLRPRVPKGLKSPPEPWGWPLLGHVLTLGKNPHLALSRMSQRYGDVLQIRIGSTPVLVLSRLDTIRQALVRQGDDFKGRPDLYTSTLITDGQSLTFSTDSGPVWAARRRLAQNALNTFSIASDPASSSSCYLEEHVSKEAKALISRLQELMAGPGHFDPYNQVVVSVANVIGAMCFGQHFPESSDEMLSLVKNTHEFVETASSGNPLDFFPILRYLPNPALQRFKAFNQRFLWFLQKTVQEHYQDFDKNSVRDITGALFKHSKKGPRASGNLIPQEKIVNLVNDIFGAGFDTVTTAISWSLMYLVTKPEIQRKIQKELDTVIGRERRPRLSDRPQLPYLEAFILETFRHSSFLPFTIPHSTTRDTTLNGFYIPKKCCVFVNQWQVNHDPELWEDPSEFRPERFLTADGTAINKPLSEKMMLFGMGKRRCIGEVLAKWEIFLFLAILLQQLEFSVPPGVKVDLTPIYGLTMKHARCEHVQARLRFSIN
Outline: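 Inhibition of CYP1A2 was measured in commercially available pooled human liver microsomes (0.2 mg protein/mL) using 7-ethoxyresorufin O-deethylation with 0.5 μmol/L ethoxyresorufin. Test compound at 1, 5, 10, 20 μmol/L in […] Hepes buffer was incubated at 37° C. after NADPH addition; methanol/acetonitrile=1/1 (v/v) stopped the reaction, and resorufin was read fluorescently.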

CYP3A4 = biological target: T3, CYP3A4 (Homo sapiens, UniProt P08684); experiment: CYP inhibition test (CYP3A4); assay type: in vitro ADME; settings: pooled human liver microsomes; terfenadine hydroxylation
T3 construct: The commercially available pooled human liver microsomes are used as an enzyme resource; from tissue; host or cells: pooled human liver microsomes
Outline: as §1

[1] = biological target: T4, human ether-a-go-go related gene (hERG) channel (Homo sapiens, UniProt Q12809); experiment: hERG test; assay type: cell-based; settings: % inhibition of IKr tail peak current at 3 uM; CHO cells expressing hERG
T4 construct: expressed in transfected cells; host or cells: CHO cells
Outline: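 IKr was recorded from hERG-expressing CHO cells by automated whole-cell patch clamp at a holding potential of −80 mV. A −50 mV leak step was followed by a 2 s depolarization to +20 mV and a 2 s repolarization to −50 mV, when current was measured.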

Metabolic stability test = assay type: in vitro ADME; settings: human liver microsomes, 37° C., 30 minutes, NADPH
Outline: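 Parent compound was measured by LC/MS/MS or SPE/MS after a methanol/acetonitrile quench and reported as % remaining, with the 0 min sample set to 100%. Incubations ran 30 min at 37 °C in pH 7.4 Tris buffer containing pooled human liver microsomes at 0.5 mg protein/mL and 1 mmol/L NADPH.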

[2] = JP 1st fluid, 25 °C, pH 1.2, simulated gastric fluid, kinetic from dmso stock, read-out: JP1
[3] = JP 2nd fluid A, 25 °C, pH 6.8, aqueous buffer, kinetic from dmso stock, read-out: JP2_μM
[4] = JP 1st fluid, pH 1.2, simulated gastric fluid, kinetic from dmso stock, read-out: JP1
[5] = JP 2nd fluid B, pH 6.8, aqueous buffer, kinetic from dmso stock, read-out: JP2_μM
[6] = solubility in JP 2nd fluid B, 1% DMSO, *2: shaken for 1 hour at room temperature, read-out: JP2_μM

T1 sequence (P33261 whole entry): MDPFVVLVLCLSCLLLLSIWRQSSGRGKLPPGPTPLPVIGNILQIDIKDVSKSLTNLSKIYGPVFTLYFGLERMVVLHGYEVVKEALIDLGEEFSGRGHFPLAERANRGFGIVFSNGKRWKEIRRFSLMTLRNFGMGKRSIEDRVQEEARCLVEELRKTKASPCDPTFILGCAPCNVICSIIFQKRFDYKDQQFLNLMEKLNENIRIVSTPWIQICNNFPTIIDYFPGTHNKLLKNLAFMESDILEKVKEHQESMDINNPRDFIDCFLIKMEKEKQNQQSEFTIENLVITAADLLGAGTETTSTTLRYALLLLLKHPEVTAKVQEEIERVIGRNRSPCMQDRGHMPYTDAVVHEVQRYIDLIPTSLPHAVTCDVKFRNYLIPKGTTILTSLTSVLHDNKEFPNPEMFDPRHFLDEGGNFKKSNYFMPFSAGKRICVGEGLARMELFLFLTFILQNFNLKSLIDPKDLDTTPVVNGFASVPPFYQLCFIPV
T3 sequence (P08684 whole entry): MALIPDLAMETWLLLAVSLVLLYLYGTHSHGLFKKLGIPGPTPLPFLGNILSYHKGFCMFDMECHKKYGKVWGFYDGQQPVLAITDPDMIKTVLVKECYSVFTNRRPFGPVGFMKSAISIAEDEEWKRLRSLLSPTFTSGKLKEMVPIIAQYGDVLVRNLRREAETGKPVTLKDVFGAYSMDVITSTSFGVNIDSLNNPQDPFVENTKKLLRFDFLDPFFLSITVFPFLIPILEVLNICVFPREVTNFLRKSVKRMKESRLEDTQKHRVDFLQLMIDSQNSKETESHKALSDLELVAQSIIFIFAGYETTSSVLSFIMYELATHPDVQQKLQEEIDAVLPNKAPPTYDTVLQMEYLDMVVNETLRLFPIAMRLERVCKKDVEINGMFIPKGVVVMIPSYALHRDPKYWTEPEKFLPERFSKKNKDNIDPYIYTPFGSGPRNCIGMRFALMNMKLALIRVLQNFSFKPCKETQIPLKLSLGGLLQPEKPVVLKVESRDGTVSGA
T4 sequence (Q12809 whole entry): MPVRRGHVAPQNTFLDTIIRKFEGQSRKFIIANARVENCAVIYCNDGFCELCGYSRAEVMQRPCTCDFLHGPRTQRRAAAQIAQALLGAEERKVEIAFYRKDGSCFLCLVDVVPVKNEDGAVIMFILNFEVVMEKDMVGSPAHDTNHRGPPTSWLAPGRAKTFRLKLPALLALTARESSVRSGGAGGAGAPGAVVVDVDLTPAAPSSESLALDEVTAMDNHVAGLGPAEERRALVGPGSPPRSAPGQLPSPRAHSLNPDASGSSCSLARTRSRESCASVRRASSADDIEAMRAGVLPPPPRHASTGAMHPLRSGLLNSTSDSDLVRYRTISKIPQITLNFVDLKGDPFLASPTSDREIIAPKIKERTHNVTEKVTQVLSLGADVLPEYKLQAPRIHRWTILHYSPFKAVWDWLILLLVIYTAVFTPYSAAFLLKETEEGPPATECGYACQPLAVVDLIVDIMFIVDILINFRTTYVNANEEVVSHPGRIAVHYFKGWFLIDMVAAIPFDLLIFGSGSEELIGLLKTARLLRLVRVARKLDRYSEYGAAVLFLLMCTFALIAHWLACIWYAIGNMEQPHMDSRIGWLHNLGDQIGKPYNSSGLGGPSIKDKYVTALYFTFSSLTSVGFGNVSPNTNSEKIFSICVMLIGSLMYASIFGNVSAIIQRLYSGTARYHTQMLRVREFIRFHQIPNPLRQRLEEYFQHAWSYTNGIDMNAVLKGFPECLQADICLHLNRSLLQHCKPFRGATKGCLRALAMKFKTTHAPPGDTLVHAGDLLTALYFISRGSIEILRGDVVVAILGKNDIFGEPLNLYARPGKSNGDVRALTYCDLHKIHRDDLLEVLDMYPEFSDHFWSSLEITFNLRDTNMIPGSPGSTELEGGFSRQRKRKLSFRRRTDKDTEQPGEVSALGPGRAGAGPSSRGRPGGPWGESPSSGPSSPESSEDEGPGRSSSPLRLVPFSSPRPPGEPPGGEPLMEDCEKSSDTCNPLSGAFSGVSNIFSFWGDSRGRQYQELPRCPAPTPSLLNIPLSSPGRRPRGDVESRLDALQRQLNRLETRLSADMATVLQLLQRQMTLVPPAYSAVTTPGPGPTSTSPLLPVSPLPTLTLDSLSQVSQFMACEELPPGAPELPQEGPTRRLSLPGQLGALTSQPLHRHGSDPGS

Row | SMILES | pIC50 (CYP2C19) | solubility kinetic at 16 h (Solubility test; [2]) [µM] | solubility kinetic at 16 h (Solubility test; [3]) [µM] | pIC50 (CYP1A2) | pIC50 (CYP3A4) | hERG_3 uM_% [1] [%] | solubility kinetic at 1 h (Solubility test; [4]) [µM] | solubility kinetic at 1 h (Solubility test; JP 2nd fluid A, pH 6.8, aqueous buffer, kinetic from dmso stock, read-out: JP2_μM) [µM] | remaining % (Metabolic stability test) [%] | solubility kinetic at 1 h (Solubility test; [5]) [µM] | solubility kinetic at 16 h (Solubility test; [6]) [µM]
1 | COc1cnc(C(=O)Nc2ccc(F)c([C@@]3(C)N=C(N)S[C@H](C)[C@@H]3F)c2)cn1 [Compound I-8] | ≤ 4.70 | 46.4 (≈ 18.9 µg/mL) | > 50 | ≤ 4.70 | ≤ 4.70 | 16.7 | – | – | – | – | –
2 | C[C@H]1SC(N)=N[C@](C)(c2cc(NC(=O)c3cnc(OCC(F)F)cn3)ccc2F)[C@H]1F [Compound I-48] | ≤ 4.70 | – | – | ≤ 4.70 | ≤ 4.70 | – | > 50 | 39.5 (≈ 18.1 µg/mL) | 92.9 | – | –
3 | C[C@]1(c2nc(NC(=O)c3ccc(C#N)cn3)ccc2F)N=C(N)S[C@H](CF)[C@@H]1F [Compound I-4] | ≤ 4.70 | 35.8 (≈ 15.1 µg/mL) | > 50 | ≤ 4.70 | ≤ 4.70 | 47.9 | – | – | – | – | –
4 | C[C@H]1[C@@H](C(F)(F)F)OC(N)=N[C@]1(C)c1cc(NC(=O)c2ccc(C#N)cn2)ccc1F [Compound I-28] | ≤ 4.70 | 40.4 (≈ 17.6 µg/mL) | > 50 | ≤ 4.70 | ≤ 4.70 | 36.2 | – | – | – | – | –
5 | COc1cnc(C(=O)Nc2cccc([C@@]3(C)N=C(N)S[C@H](C)[C@@H]3F)c2)cn1 [Compound I-103] | ≤ 4.70 | – | – | ≤ 4.70 | ≤ 4.70 | – | 49.4 (≈ 19.2 µg/mL) | – | 78.3 | > 50 | –
6 | C[C@]1(c2cc(NC(=O)c3ccc(C#N)cn3)ccc2F)N=C(N)O[C@H](CF)[C@@H]1OCC(F)(F)F [Compound I-10] | ≤ 4.70 | 40 (≈ 19.3 µg/mL) | > 50 | ≤ 4.70 | ≤ 4.70 | – | – | – | 95.6 | – | –
7 | C[C@]1(c2cc(NC(=O)c3ccc(C#N)cn3)ccc2F)N=C(N)SCC12CC(F)(F)C2 [Compound I-59] | ≤ 4.70 | – | – | ≤ 4.70 | – | – | > 50 | – | 66.8 | – | >50
8 | C[C@]1(c2cc(NC(=O)c3ccc(OCF)cn3)ccc2F)N=C(N)O[C@H](C2(F)CC2)[C@@H]1F [Compound I-101] | ≤ 4.70 | – | – | ≤ 4.70 | ≤ 4.70 | – | > 50 | – | 91.8 | – | >50.0
9 | CC#CCOc1cnc(C(=O)Nc2ccc(F)c([C@@]3(C)N=C(N)O[C@H](C(C)(F)F)[C@@H]3F)c2)cn1 [Compound I-76] | ≤ 5.00 | – | – | ≤ 4.70 | – | 5.8 | > 50 | – | – | 8.2 (≈ 3.93 µg/mL) | –
10 | C[C@]1(c2cc(NC(=O)c3ccc(C#N)cn3)ccc2F)N=C(N)O[C@H](C2(F)CC2)[C@@H]1F [Compound I-96] | ≤ 4.70 | – | – | ≤ 4.70 | ≤ 4.70 | – | 45.8 (≈ 19.7 µg/mL) | – | 101 | > 50 | –
11 | C[C@H]1SC(N)=N[C@](C)(c2cccc(NC(=O)c3cnc(C(F)F)cn3)c2)[C@H]1F [Compound I-106] | ≤ 4.70 | – | – | ≤ 4.70 | ≤ 4.70 | – | 42 (≈ 17.2 µg/mL) | – | 84.1 | > 50 | –
12 | C[C@H]1SC(N)=N[C@](C)(c2nc(NC(=O)c3ccc(C#N)cn3)ccc2F)[C@H]1F [Compound I-1] | ≤ 4.70 | > 50 | > 50 | ≤ 4.70 | ≤ 4.70 | – | – | – | 82.4 | – | –
13 | C[C@H]1SC(N)=N[C@](C)(c2cccc(NC(=O)c3cnc(OCF)cn3)c2)[C@H]1F [Compound I-104] | ≤ 4.70 | – | – | ≤ 4.70 | ≤ 4.70 | – | 40.6 (≈ 16.5 µg/mL) | – | 77.7 | > 50 | –
14 | C[C@H]1SC(N)=N[C@](C)(c2cc(NC(=O)c3cnc(OCF)cn3)ccc2F)C12CC(F)(F)C2 [Compound I-62] | ≤ 4.70 | – | – | ≤ 4.70 | – | 29.6 | > 50 | – | – | – | >50
